Measurements taken from article PMC9503459, “Antifungal Activity, Structural Stability, and Immunomodulatory Effects on Human Immune Cells of Defensin from the Lentil Lens culinaris” (Membranes, 2022).
No end group written: not given here.

Tested on: polarized Caco-2 monolayer
Assay: Cytokine response by multiplex xMAP, Caco-2
Type: cell-based, human
Conditions: 2 µM, 24 h
Method: Colorectal adenocarcinoma Caco-2 cell line (ATCC HTB-37) was cultured in complete DMEM/F12 (1:1) medium containing 10% fetal bovine serum (FBS, Gibco) and 1X antibiotic-antimycotic solution (1XAAS, Invitrogen, Waltham, MA, USA). The acute monocytic leukemia THP-1 line (ATCC TIB-202) was cultured in complete RPMI-1640 medium, containing 10% FBS, 1XAAS, and […]. THP-1 cells were differentiated into pro-inflammatory macrophages (Mφ1) with phorbol 12-myristate 13-acetate (Sigma-Aldrich) for 24 h and subsequently polarized with lipopolysaccharide from E. coli (Sigma-Aldrich) and rhIFN-γ (Sigma-Aldrich) for another 48 h according to previously reported protocol. All cells were cultured in a humidified CO2 incubator (5% CO2, 37 °C). Primary peripheral blood mononuclear cells (PBMCs) collected from a healthy donor were purchased from American Type Culture Collection (ATCC PCS-800-011). CD4^+ T-helper and CD8^+ T cytotoxic cells were isolated from PBMCs by magnetic separation with mouse anti-human CD4-PE (clone 13B8.2, Beckman Coulter Diagnostics, Pasadena, CA, USA) and CD8-PE (clone REA734, Miltenyi Biotec, Bergisch Gladbach, Germany), Anti-PE MicroBeads (Miltenyi Biotec), and LS Separation Columns (Miltenyi Biotec). Isolated CD4^+ and CD8^+ cells were expanded separately with Dynabeads™ Human T-Expander CD3/CD28 (Gibco, Waltham, MA, USA) in RPMI-1640 supplemented with 10% FBS, 1XAAS and 100 U/mL rh-IL-2 (Gibco). Regulatory CD4^+ FoxP3^+ T cells (Tregs) were isolated from PBMCs by magnetic separation with CD4^+CD25^+ Regulatory T Cell Isolation Kit, human (Miltenyi Biotec). Primary CD14^+ blood monocytes were isolated from PBMCs by adherence according to standard technique. Monocyte-derived mature dendritic cells (moDCs) were obtained from CD14^+ blood monocytes according to the previously reported protocol. Briefly, blood monocytes were incubated in complete RPMI-1640 medium, containing 10% FBS, 1XAAS, 800 U/mL rhGM-CSF (Sci-Store, Russia, Moscow) and 500 U/mL rhIL-4 (Sci-Store) for 3 days. Fresh complete RPMI-1640 medium with rhGM-CSF and rhIL-4 was added to the culture on day 3. On day 5, fresh complete RPMI-1640 containing 100 U/mL rhTNF-α (Sigma) as well as 800 U/mL rhGM-CSF and 500 U/mL rhIL-4 was added and the culture was incubated for another 4 days until full maturation.
Caco-2 cells were seeded into the wells of a 48-well plate, coated with 0.1% bovine collagen (Sigma-Aldrich) for 24 h, 3 weeks before the experiment with complete DMEM/F12 (1:1) medium renewal every 2–3 days. Monocytes, moDCs, CD4^+ T-helper and CD8^+ T cytotoxic cells, Mφ1, and Regulatory CD4^+ FoxP3^+ T cells were seeded into the wells of 48-well plates in the complete RPMI-1640 medium supplemented with 10% Human AB serum (HABS, Capricorn Scientific, Ebsdorfergrund, Germany) and 1XAAS 24 h prior to the experiment; medium in Caco-2-containing wells was also replaced with the same medium. After 24 h, half of the medium in each well was replaced by fresh complete RPMI-1640 medium with 10% HABS, supplemented with 4 µM of Lc-def for the sample wells or fresh medium alone for the control wells. Cell cultures were kept in CO2-incubator (5% CO2, 37 °C) for another 24 h. Culture supernatants were collected 24 h later and stored at −70 °C degrees less than one month prior to the analytes assessment. […]

## Lc-def: defensin from lentil Lens culinaris seeds (UniProt:B3F051), recombinant, overexpressed in Escherichia coli (KTCENLSDSFKGPCIPDGNCNKHCKEKEHLLSGRCRDDFRCWCTRNC; disulfide (positions not given here); ends not checked; also: disulfide bonds present, pairing not given here; UniProt B3F051 28-74, looked up)
Caco-2 monolayer
  EGF: <1.95↓ pg/ml
  Eotaxin: <3.23↓ pg/ml
  FGF-2: 19.54 pg/mL
  FLT-3L: <0.45↓ pg/ml
  Fractalkine: <23.19↓ pg/ml
  G-CSF: <2.57↓ pg/ml
  GM-CSF: <1.36↓ pg/ml
  GROa: 21.87 pg/mL
  IFNa2: <4.43↓ pg/ml
  IFNg: <1.99↓ pg/ml
  IL-1RA: <0.83↓ pg/ml
  IL-1a: <3.64↓ pg/ml
  IL-1b: <18.72↓ pg/ml
  IL-2: <0.31↓ pg/ml
  IL-3: <0.48↓ pg/ml
  IL-4: 11.31 pg/mL
  IL-5: <0.24↓ pg/ml
  IL-6: 1.45 pg/mL
  IL-7: <0.33↓ pg/ml
  IL-8: 7.94 pg/mL
  IL-9: 11.08 pg/mL
  IL-10: <0.68↓ pg/ml
  IL-12 (p40): <3.02↓ pg/ml
  IL-12 (p70): <1.48↓ pg/ml
  IL-13: 42.42 pg/mL
  IL-15: <1.45↓ pg/ml
  IL-17A: <1.55↓ pg/ml
  IL-17E/IL-25: <20.59↓ pg/ml
  IL-17F: <16.96↓ pg/ml
  IL-18: <0.35↓ pg/ml
  IL-22: 51.96 pg/mL
  IL-27: <8.55↓ pg/ml
  IP-10: 29.22 pg/mL
  M-GSF: <23.75↓ pg/ml
  MCP-1: <1.52↓ pg/ml
  MCP-3: 12.67 pg/mL
  MDC: <0.35↓ pg/ml
  MIG: <3.43↓ pg/ml
  MIP-1a: <1.76↓ pg/ml
  MIP-1b: <1.92↓ pg/ml
  PDGF-AA: 541.87 pg/mL
  PDGF-AB/BB: 188.6 pg/mL
  RANTES: <0.67↓ pg/ml
  TGF-a: <0.66↓ pg/ml
  TNFa: <3.91↓ pg/ml
  TNFb: 21.23 pg/mL
  VEGFa: 2653 pg/mL
  sCD40L: <6.66↓ pg/ml
Polarized Caco-2 monolayer
  effect on cytokine production: no effect
